# From ChEMBL document CHEMBL2095176, “GSK Tuberculosis Screening Data”
# Key:
# [1] = test system: Mycobacterium tuberculosis H37Rv; assay: microbe, parasite or virus in culture
# Description: GSK_TB: Intracellular minimum inhibitory concentration (MIC) H37Rv assay
# physchem [2] = conditions: phosphate buffered saline, pH 7.4
# physchem [3] = conditions: octanol/water
# Description: GSK_TB: GSK in-house hydrophobicity assay (logP)
# physchem [4] = conditions: buffer, pH 7.4
# Description: GSK_TB: GSK in-house hydrophobicity assay at pH7.4 (logD)
SMILES,MIC90 [1],solubility kinetic (physchem [2]),logP (physchem [3]),logD (physchem [4])
COc1cccc(-c2nc3c(N4CCCC4)cccc3n2CC2CCCN2)n1.O=C(O)C(F)(F)F (configuration not stated),9.77 µM,78 µM,–,–
CSc1cccc(C(=O)Nc2nc(-c3ccccn3)cs2)c1,3.72 µM,12 µM,5.26,5.25
CCc1ccc(S(=O)(=O)Nc2cc(CN3CCN(CCC(C)C)CC3)ccc2C)cc1.O=C(O)C(F)(F)F.O=C(O)C(F)(F)F,4.68 µM,313 µM,7.74,6.28
O=C(C=Cc1cccs1)N1CCN(Cc2ccc3c(c2)OCO3)CC1,0.3 µM,314 µM,5.23,4.97
O=C(OCc1c(F)cccc1Cl)c1ccc(-n2ncc(Cl)c(Cl)c2=O)cc1,4.9 µM,22 µM,–,–
Cc1ccc2nc(C)c(C(=O)NCc3cccs3)n2c1,0.2 µM,–,–,–
Cc1cc(CN2CCC3(CC2)OCCc2sccc23)oc1C,3.7 µM,289 µM,–,–
COc1ccc(-c2cc(=O)c3cc(OCC(=O)OC(C)C)ccc3o2)cc1,2.95 µM,–,6.29,5.91
Nc1cccnc1Nc1ccc(Cl)cc1,0.232 µM,94 µM,–,–
CSc1ccc(C(=O)Nc2nc(-c3ccccn3)cs2)cc1,8.71 µM,–,5.06,5.07
COc1ccc2nc(C)cc(OCC(=O)Nc3ccccc3OC)c2c1,0.4 µM,–,–,–
CCCOC(=O)COc1ccc2c(=O)c(-c3ccccc3OC)coc2c1,7.94 µM,–,6.24,6
O=C(c1[nH]nc2c1CCCC2)N1CCN(Cc2ccc3c(c2)OCO3)CC1,4.5 µM,–,–,–
CCc1nnc(NC(=O)c2cccc(C(=O)Nc3nnc(CC)s3)n2)s1,8 µM,26 µM,–,–
Nc1ccccc1Nc1ccc2c(c1)OCO2,1.82 µM,139 µM,–,–
O=C(c1cnn(C(=O)c2ccco2)c1)c1cc(F)ccc1O,9.55 µM,1 µM,–,–
Cn1cc(NC(=O)c2cc(NC(=O)CNC(=N)N)cn2C)cc1C(=O)NCCC(=N)N [NETROPSIN CHLORIDE],6.46 µM,–,–,–
O=C(Nc1nnc(-c2ccc(Cl)s2)o1)c1ccc(Cl)s1,7.76 µM,–,–,–
O=C(C=Cc1ccccc1)N1CCN(Cc2ccc3c(c2)OCO3)CC1,3.7 µM,–,5.44,5.16

SMILES,MIC90 [1],solubility kinetic (physchem [2]),logP (physchem [3]),logD (physchem [4])
Clc1ccc(Nc2nc(-c3ccccn3)cs2)nc1,5.9 µM,–,6.53,5.35
Cc1csc2nc(-c3ccccn3)nc(Nc3ccncn3)c12.O=C(O)C(F)(F)F,1.7 µM,231 µM,–,–
c1cc2c(s1)CCOC21CCN(Cc2ccc3c(c2)OCCO3)CC1,1 µM,–,–,–
Cc1cccc(-c2nc(Nc3ccncn3)c3c(C)csc3n2)n1,0.3 µM,–,–,–
Cc1ccccc1CN1CCC(O)(c2ccc(Cl)c(C(F)(F)F)c2)CC1,4.2 µM,77 µM,–,–
c1ccc(-c2nc(N3CCCCCC3)nc(-n3ccnc3)n2)cc1,7.41 µM,1 µM,–,–
CCc1ccc(CN2CCC3(CC2)OCCc2sccc23)s1,1 µM,–,–,–
CCc1ccc([C@@H]2C[C@H](C(F)(F)F)n3ncc(C(=O)NCc4ccc(OC)cc4)c3N2)cc1,4.9 µM,–,–,–
CNc1nc(SC)nc2ccccc12,0.2 µM,–,–,–
Cc1ccc(C2CC(C(F)(F)F)n3ncc(C(=O)NCc4ccc5c(c4)OCO5)c3N2)cc1 (configuration not stated),5.4 µM,–,–,–
COc1ccc(CCNc2cc(-c3ccccc3)nc3ncnn23)cc1,0.6 µM,–,–,–
O=C(NC12CC3CC(CC(C3)C1)C2)c1cc2cc(Cl)ccc2[nH]1,1 µM,–,–,–
Cc1cc(/C=C/c2cccc(C(=O)O)c2)cc(Cl)c1OC[C@@H]1CCCN1C,0.457 µM,486 µM,–,–
COc1ccc2nc(C)cc(OCC(=O)Nc3cc(C)cc(C)c3)c2c1,0.3 µM,–,–,–
c1ncn(-c2ccc(COc3ccc(-n4cncn4)cc3)cc2)n1,4.73 µM,–,–,–
Cc1cccc(-c2nc(Nc3ccncn3)c3sccc3n2)n1,0.5 µM,–,–,–
CSc1ccccc1C(=O)Nc1nc(-c2ccccn2)cs1,1.74 µM,–,–,–
O=C(CCSc1ccc(Cl)cc1)Nc1nc(-c2ccccn2)cs1,8.41 µM,–,–,–
